Laboratory results reported in patent US11634412B2, “3-phosphoglycerate dehydrogenase inhibitors and uses thereof” (Raze Therapeutics, Inc., priority 2016, dated 2023).

What follows are molecules tested against T1, Full length (FL) 3-Phosphoglycerate Dehydrogenase (PHGDH) (Homo sapiens, UniProt O43175) (assay: Full length (FL) PHGDH Diaphorase coupled assay (20 uM NAD)). Conditions: full-length PHGDH 10 nM, 30° C. 60 minutes, resorufin fluorescence.
T1 construct: Full length (FL) 3-Phosphoglycerate Dehydrogenase (PHGDH) Diaphorase coupled assay (500 uM NAD)
T1 sequence (O43175 1-533): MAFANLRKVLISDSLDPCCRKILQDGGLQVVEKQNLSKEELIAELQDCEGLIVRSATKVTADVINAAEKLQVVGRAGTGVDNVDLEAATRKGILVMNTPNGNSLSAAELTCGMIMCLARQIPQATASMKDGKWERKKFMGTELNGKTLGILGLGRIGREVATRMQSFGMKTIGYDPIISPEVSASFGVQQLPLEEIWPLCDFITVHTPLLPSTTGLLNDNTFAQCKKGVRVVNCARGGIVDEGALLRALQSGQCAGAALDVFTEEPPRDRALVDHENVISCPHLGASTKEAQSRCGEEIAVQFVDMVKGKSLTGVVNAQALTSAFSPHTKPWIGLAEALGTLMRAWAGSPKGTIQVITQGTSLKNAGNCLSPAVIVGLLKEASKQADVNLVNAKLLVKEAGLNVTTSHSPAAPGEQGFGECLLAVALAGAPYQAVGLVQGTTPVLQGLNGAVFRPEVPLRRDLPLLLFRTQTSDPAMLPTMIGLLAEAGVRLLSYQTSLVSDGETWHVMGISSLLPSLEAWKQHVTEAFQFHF
Assay type: biochemical
Procedure: PHGDH activity was determined by detecting the NADH produced during the reaction. Diaphorase was used to catalyze the oxidation of NADH with the concomitant reduction of resazurin to the fluorescent product resorufin. Resorufin fluorescence quantitatively reflected the production of NADH by the PHGDH reaction. To drive the forward reaction, two enzymes in the serine synthesis pathway subsequent to PHGDH, Phosphoserine aminotransferase (PSAT1) and phosphoserine phosphatase (PSPH) were also added to the reaction.

Compound | IC50 [µM]
Cn1c(C(=O)NC2(c3cccc(C(N)=O)c3)CCOC2)cc2c(Cl)c(Cl)ccc21 (racemic) [I-141 e140, (±)-N-[3-(3-Carbamoylphenyl)tetrahydrofuran-3-yl]-4,5-dichloro-1-methyl-indole-2-carboxamide] | 1 to 5
CNC(=O)NS(=O)(=O)N1CCCC(NC(=O)c2cc3c(Cl)c(Cl)ccc3n2C)(c2cccc(C#N)c2)C1 (racemic) [I-142 e7] | 5 to 10
Cn1c(C(=O)NC2(c3cccc(C#N)c3)CCOC2)cc2c(Cl)c(Cl)ccc21 (racemic) [I-143 e139, (±)-4,5-dichloro-N-[3-(3-cyanophenyl)tetrahydrofuran-3-yl]-1-methyl-indole-2-carboxamide] | 1 to 5
CNC(=O)NS(=O)(=O)N1CCCC(NC(=O)c2cc3c(Cl)c(Cl)ccc3n2C)(c2ccccc2)C1 (racemic) [I-146 e6] | 5 to 10
CC(=O)NS(=O)(=O)N1CCC(NC(=O)c2cc3c(Cl)c(Cl)ccc3n2C)(c2ccccc2)C1 (racemic) [I-147 e8] | 1 to 5
Cn1c(C(=O)N[C@]2(c3ccc(C(=O)O)cc3)CCOC2)cc2c(Cl)c(Cl)ccc21 (single isomer, unassigned; peak 1) [I-133 or I-132 e146 peak 1] | 0.001 to 1
Cn1c(C(=O)N[C@@]2(c3ccc(C(=O)O)cc3)CCOC2)cc2c(Cl)c(Cl)ccc21 (single isomer, unassigned; peak 2) [I-132 or I-133 e147 peak 2] | 0.001 to 1
CC(=O)NS(=O)(=O)N1CCC(NC(=O)c2cc3c(Cl)c(Cl)ccc3n2C)(c2ccc(C(=O)O)cc2)CC1 [I-144 e11] | 0.001 to 1
CC(=O)NS(=O)(=O)N1CCC(NC(=O)c2cc3c(Cl)c(Cl)ccc3n2C)(c2cccc(N)c2)CC1 [I-145 e13] | 5 to 10
CC(=O)NS(=O)(=O)N1CC(NC(=O)c2cc3c(Cl)c(Cl)ccc3n2C)(c2ccccc2)C1 [I-148 e9] | 5 to 10
CC(=O)NS(=O)(=O)N1CCC(NC(=O)c2cc3c(Cl)c(Cl)ccc3n2C)(c2cccc(CO)c2)CC1 [I-149 e12] | 5 to 10
CC(=O)Nc1cccc(C2(NC(=O)c3cc4c(Cl)c(Cl)ccc4n3C)CCN(C(C)=O)CC2)c1 [I-150 e5] | 5 to 10
CC(=O)NS(=O)(=O)N1CCC(NC(=O)c2cc3c(Cl)c(Cl)ccc3n2C)(c2cccc(C(=O)O)c2)CC1 [I-151 e10] | 1 to 5
Cn1c(C(=O)NC2(c3ccccc3)CCN(S(=O)(=O)Nc3cnccn3)CC2)cc2c(Cl)c(Cl)ccc21 [I-152 e3] | 1 to 5
CC(=O)Nc1cccc(C2(NC(=O)c3cc4c(Cl)c(Cl)ccc4n3C)CCN(S(=O)(=O)NC(C)=O)CC2)c1 [I-153 e2] | 5 to 10
CC(=O)NS(=O)(=O)N1CCC(NC(=O)c2cc3c(Cl)c(Cl)ccc3n2C)(c2cccc(C#N)c2)CC1 [I-154 e4] | 5 to 10
